Measured values published in PubChem BioAssay AID1963973 (Molecular Pharmacology Branch, DTP, NCI, 2024).

Test system: 883617-216-R-J1-PDC tumor spheroids, viability
Experiment: Anticancer human tumor 883617-216-R-J1-PDC patient-derived bladder carcinoma cell line growth inhibition [PI3K]
Conditions: spheroids with HUVEC and MSC; for IC50: curve of first compound; for viability, T/C: stronger effect = lower value
How it was run: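 Viability of mixed-cell spheroids was determined after exposure to pairwise combinations, one partner being inavolisib, alpelisib, duvelisib or copanlisib. Highest tested concentration matched clinical Cmax where known and 10 microM where not, descending in half-log steps.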

[1] = second compound 0.0316 µM, first compound 0.0316 µM
[2] = second compound 0.0316 µM, first compound 0.1 µM
[3] = second compound 0.0316 µM, first compound 0.316 µM
[4] = second compound 0.0316 µM, first compound 1 µM
[5] = second compound 0.1 µM, first compound 0.0316 µM
[6] = second compound 0.1 µM, first compound 0.1 µM
[7] = second compound 0.1 µM, first compound 0.316 µM
[8] = second compound 0.1 µM, first compound 1 µM
[9] = second compound 0.316 µM, first compound 0.0316 µM
[10] = second compound 0.316 µM, first compound 0.1 µM
[11] = second compound 0.316 µM, first compound 0.316 µM
[12] = second compound 0.316 µM, first compound 1 µM
[13] = second compound 1 µM, first compound 0.0316 µM
[14] = second compound 1 µM, first compound 0.1 µM
[15] = second compound 1 µM, first compound 0.316 µM
[16] = second compound 1 µM, first compound 1 µM
[17] = second compound 3.16 µM, first compound 0.0316 µM
[18] = second compound 3.16 µM, first compound 0.1 µM
[19] = second compound 3.16 µM, first compound 0.316 µM
[20] = second compound 3.16 µM, first compound 1 µM
[21] = second compound 10 µM, first compound 0.0316 µM
[22] = second compound 10 µM, first compound 0.1 µM
[23] = second compound 10 µM, first compound 0.316 µM
[24] = second compound 10 µM, first compound 1 µM
[25] = second compound 0.0316 µM, first compound 3.16 µM
[26] = second compound 0.0316 µM, first compound 10 µM
[27] = second compound 0.1 µM, first compound 3.16 µM
[28] = second compound 0.1 µM, first compound 10 µM
[29] = second compound 0.316 µM, first compound 3.16 µM
[30] = second compound 0.316 µM, first compound 10 µM
[31] = second compound 1 µM, first compound 3.16 µM
[32] = second compound 1 µM, first compound 10 µM
[33] = second compound 3.16 µM, first compound 3.16 µM
[34] = second compound 3.16 µM, first compound 10 µM
[35] = second compound 10 µM, first compound 3.16 µM
[36] = second compound 10 µM, first compound 10 µM
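Also: spheroids exposed to agents for 7 days before the viability read.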

Structure (SMILES): CCN1CCN(Cc2ccc(Nc3ncc(F)c(-c4cc(F)c5nc(C)n(C(C)C)c5c4)n3)nc2)CC1 + Cc1nc(NC(=O)N2CCCC2C(N)=O)sc1-c1ccnc(C(C)(C)C(F)(F)F)c1
- IC50 (second compound 0.0316 µM): 0.226 µM
- IC50 (second compound 0.1 µM): 0.0263 µM
- IC50 (second compound 0.316 µM): 0.00415 µM
- IC50 (second compound 1 µM): < 0.00316 µM
- IC50 (second compound 3.16 µM): < 0.00316 µM
- IC50 (second compound 10 µM): < 0.00316 µM
- viability, T/C (second compound 0.0316 µM, first compound 0.00316 µM): 75.7%
- viability, T/C (second compound 0.0316 µM, first compound 0.01 µM): 64.7%
- viability, T/C [1]: 64.2%
- viability, T/C [2]: 53.8%
- viability, T/C [3]: 49.9%
- viability, T/C [4]: 39.6%
- viability, T/C (second compound 0.1 µM, first compound 0.00316 µM): 59.7%
- viability, T/C (second compound 0.1 µM, first compound 0.01 µM): 56.3%
- viability, T/C [5]: 46.4%
- viability, T/C [6]: 44.4%
- viability, T/C [7]: 44.3%
- viability, T/C [8]: 36.3%
- viability, T/C (second compound 0.316 µM, first compound 0.00316 µM): 53.3%
- viability, T/C (second compound 0.316 µM, first compound 0.01 µM): 39.7%
- viability, T/C [9]: 37%
- viability, T/C [10]: 31.4%
- viability, T/C [11]: 26.6%
- viability, T/C [12]: 28.5%
- viability, T/C (second compound 1 µM, first compound 0.00316 µM): 29.1%
- viability, T/C (second compound 1 µM, first compound 0.01 µM): 25.5%
- viability, T/C [13]: 24.1%
- viability, T/C [14]: 17.1%
- viability, T/C [15]: 21.4%
- viability, T/C [16]: 19.3%
- viability, T/C (second compound 3.16 µM, first compound 0.00316 µM): 12.3%
- viability, T/C (second compound 3.16 µM, first compound 0.01 µM): 13.7%
- viability, T/C [17]: 11.8%
- viability, T/C [18]: 10.5%
- viability, T/C [19]: 14.6%
- viability, T/C [20]: 10.5%
- viability, T/C (second compound 10 µM, first compound 0.00316 µM): 7.72%
- viability, T/C (second compound 10 µM, first compound 0.01 µM): 5.77%
- viability, T/C [21]: 5.3%
- viability, T/C [22]: 4.95%
- viability, T/C [23]: 5.02%
- viability, T/C [24]: 5.41%

Structure (SMILES): Cn1ncc(Cl)c1-c1cc(C(=O)NC(CN)Cc2cccc(F)c2)sc1Cl (stereo unspecified) + Cc1nc(NC(=O)N2CCCC2C(N)=O)sc1-c1ccnc(C(C)(C)C(F)(F)F)c1
- IC50 (second compound 0.0316 µM): 0.249 µM
- IC50 (second compound 0.1 µM): 0.236 µM
- IC50 (second compound 0.316 µM): < 0.0316 µM
- IC50 (second compound 1 µM): < 0.0316 µM
- IC50 (second compound 3.16 µM): < 0.0316 µM
- IC50 (second compound 10 µM): < 0.0316 µM
- viability, T/C [1]: 88.3%
- viability, T/C [2]: 67.7%
- viability, T/C [3]: 45.5%
- viability, T/C [4]: 26.1%
- viability, T/C [25]: 11.8%
- viability, T/C [26]: 5.02%
- viability, T/C [5]: 75%
- viability, T/C [6]: 67.1%
- viability, T/C [7]: 42.7%
- viability, T/C [8]: 25%
- viability, T/C [27]: 11.1%
- viability, T/C [28]: 4.24%
- viability, T/C [9]: 42.6%
- viability, T/C [10]: 41.6%
- viability, T/C [11]: 34.4%
- viability, T/C [12]: 18.6%
- viability, T/C [29]: 8.47%
- viability, T/C [30]: 2.6%
- viability, T/C [13]: 29.2%
- viability, T/C [14]: 30.8%
- viability, T/C [15]: 20.7%
- viability, T/C [16]: 13.9%
- viability, T/C [31]: 7.58%
- viability, T/C [32]: 2.44%
- viability, T/C [17]: 15.4%
- viability, T/C [18]: 13.4%
- viability, T/C [19]: 12.4%
- viability, T/C [20]: 8.34%
- viability, T/C [33]: 5.31%
- viability, T/C [34]: 1.74%
- viability, T/C [21]: 9.56%
- viability, T/C [22]: 7.78%
- viability, T/C [23]: 5.02%
- viability, T/C [24]: 5.6%
- viability, T/C [35]: 3.31%
- viability, T/C [36]: 0.93%

Structure (SMILES): Cn1nccc1Nc1nccc(-c2ccn(C(CO)c3ccc(Cl)c(F)c3)c(=O)c2)n1 (stereo unspecified) + Cc1nc(NC(=O)N2CCCC2C(N)=O)sc1-c1ccnc(C(C)(C)C(F)(F)F)c1
- IC50 (second compound 0.0316 µM): 9.04 µM
- IC50 (second compound 0.1 µM): 2.55 µM
- IC50 (second compound 0.316 µM): < 0.0316 µM
- IC50 (second compound 1 µM): < 0.0316 µM
- IC50 (second compound 3.16 µM): < 0.0316 µM
- IC50 (second compound 10 µM): < 0.0316 µM
- viability, T/C [1]: 82.5%
- viability, T/C [2]: 79.8%
- viability, T/C [3]: 68.7%
- viability, T/C [4]: 68.3%
- viability, T/C [25]: 68%
- viability, T/C [26]: 46.3%
- viability, T/C [5]: 69.7%
- viability, T/C [6]: 72.5%
- viability, T/C [7]: 66.7%
- viability, T/C [8]: 56%
- viability, T/C [27]: 48.7%
- viability, T/C [28]: 33.2%
- viability, T/C [9]: 47.3%
- viability, T/C [10]: 44.1%
- viability, T/C [11]: 43.9%
- viability, T/C [12]: 34.5%
- viability, T/C [29]: 30.8%
- viability, T/C [30]: 24.4%
- viability, T/C [13]: 26.2%
- viability, T/C [14]: 25.7%
- viability, T/C [15]: 26.3%
- viability, T/C [16]: 20.5%
- viability, T/C [31]: 15.1%
- viability, T/C [32]: 12.8%
- viability, T/C [17]: 13.3%
- viability, T/C [18]: 12.2%
- viability, T/C [19]: 9.5%
- viability, T/C [20]: 9.97%
- viability, T/C [33]: 8.33%
- viability, T/C [34]: 7.21%
- viability, T/C [21]: 5.74%
- viability, T/C [22]: 5.78%
- viability, T/C [23]: 4.59%
- viability, T/C [24]: 4.62%
- viability, T/C [35]: 3.21%
- viability, T/C [36]: 1.26%
